How the values were obtained:
P70 S6 kinase = assay: Western blot of phospho-p70 S6 kinase T389 in PASM cells; format: cell-based, human
Experimental: (§1) FIGS. 4A-4D are bar graphs and digital images showing that LY303511 inhibits serum-stimulated phosphorylation of S6K and Akt (FIGS. 4A and 4B), as well as proliferation in PASM cells (FIGS. 4C and 4D). After incubation in serum-free medium for 24 hours, PASM cells were incubated without or with 100 μM LY303511, rapamycin, 200 ng/ml, or 200 nM wortmannin (FIG. 4A), or 0-100 μM LY303511 (FIG. 4B), for 1 hour before the addition of 10% FBS for 30 min and preparation of cell lysates. Equal amounts of protein (20 μg/gel) were separated by SDS-PAGE and transferred to nitrocellulose membranes before immunodetection of phospho-p70 S6 kinase T389 (pS6K) orphospho-Akt S473 (pAkt) by Western blot. Data are from one experiment representative of five.
(§2) HPASM cells were purchased from Clonetics and passaged according to the manufacturer's instructions. Cells were plated in 100 mm dishes, and allowed to grow to near confluence before serum starvation for 24 hours. […] Cells were homogenized and the indicated proteins were detected by Western blot.
(§3) Measurement of protein phosphorylation: A549 cells were incubated in serum-free medium without or with inhibitors for 1 hour, as indicated, before incubation for 30 minutes with a mixture of LPS, 100 μg/ml (Sigma; St. Louis, Mo.) and IFN-γ, 100 U/ml (Roche; Nutley, N.J.). […] Integrated band densities were quantified using Scion Image beta 3b software.

mTOR = assay: Western blot of phospho-mTOR S2481 in PASM cells; format: cell-based, human
Experimental: HPASM cells were purchased from Clonetics and passaged according to the manufacturer's instructions. Cells were plated in 100 mm dishes, and allowed to grow to near confluence before serum starvation for 24 hours. Inhibitors were added to the media 1 hour before the addition of 10% FBS for 30 minutes. Cells were homogenized and the indicated proteins were detected by Western blot.
Measurement of protein phosphorylation: A549 cells were incubated in serum-free medium without or with inhibitors for 1 hour, as indicated, before incubation for 30 minutes with a mixture of LPS, 100 μg/ml (Sigma; St. Louis, Mo.) and IFN-γ, 100 U/ml (Roche; Nutley, N.J.). PASM cells were incubated in serum-free medium without or with inhibitors for 24 h as indicated, before incubation for 30 min with 10% FBS. A549 or PASM cells were washed once with cold PBS and incubated for 15 minutes on ice ih lysis buffer (20 mM Tris pH 8.0, 1% Nonidet P-40, 1 mM EDTA, 5 mM benzamidine, aprotinin, 10 μg/ml, leupeptin, 10 μg/ml, trypsin soybean inhibitor, 1 mM PMSF, 50 mM sodium fluoride, 100 μM sodium orthovanadate, and 1: 100 Sigma phosphatase inhibitor set I containing cantharidin, microcystin LR and bromotetramizole). After freezing and thawing, lysates were centrifuged for 30 min at 16,000×g before protein measurement and storage at −80° C. […] Integrated band densities were quantified using Scion Image beta 3b software.

NOD mouse model = assay: NOD and Hashimoto's autoimmune animal models; format: in vivo; conditions: compared to untreated animals
Excerpt: There are several animal based autoimmune models that can be used to test the use of the compounds disclosed herein for the treatment of an autoimmune disorder. Table 2 lists several exemplary immune-mediated disorders that can be treated using a peptide/MHC complex. For example, the non-obese diabetic (NOD) mouse model is an animal model system wherein animals develop diabetes with increasing age. To test the efficacy of a particular compound, groups of animals at the prediabetic stage (4 weeks or younger) are treated with, for example, LY303511, or LY303511 in combination with an additional immunosuppressive agent. The number of animals developing diabetes, and the rate that the anirnals develop diabetes, is then analyzed. Similarly, in the Hashimoto's mouse model system, to test the efficacy of a vaccine, groups of animals prior to the development of symptoms are treated with a treated with, for example, LY303511, or LY303511 in combination with an additional immunosuppressive agent. The number of animals developing the disease, and the rate that the animals develop the disease, are then analyzed.

AKT = assay: Western blot of phospho-Akt S473 in PASM cells; format: cell-based, human
Experimental: as §1, §2, §3

A549 cells [1] = assay: BrDU incorporation (in situ ELISA) in A549 cells; format: cell-based, human; conditions: 24 hours, 0-200 μM LY303511 without or with rapamycin 200 ng/ml
A549 cells [2] = assay: A549 cell count after 24 hours with inhibitors; format: cell-based, human; conditions: 100 μM LY303511, rapamycin 200 ng/ml, 200 nM wortmannin, 100 μM LY294002
Experimental: FIG. 2A is a bar graph showing LY303511 blocks cell proliferation, DNA synthesis, and cell cycle progression in A549 cells. A. A549 cells (80,000 cells per 35-mm dish) were grown for 1 day in medium with FBS before the addition of 0.1% DMSO, 100 μM LY303511, rapamycin, 200 ng/ml, 200 nM wortmannin, or 100 μM LY294002 for 24 hours. Cells were then incubated with trypsin, collected, and counted. Data are the means of cells/well×10^−4 ±SEM from duplicate assays in three experiments. *p<0.05 by Student's t-test. FIG. 2B is a line graph from results obtained when A549 cells (4,000 per well) in 96-well plates were grown in medium with FBS for 24 h before the addition of […] plus 0-200 μM LY303511 without or with rapamycin, 200 ng/ml, or with rapamycin alone (0-200 ng/ml). BrDU incorporation (absorbance at 490/465) was measured by in situ ELISA as per the manufacturer's instructions (BrDU detection kit, Roche). For each experiment, BrDU in cells incubated with inhibitors was expressed as a percentage of that in cells treated with 0.2% DMSO control (% control). Mean absorbance measures for controls=100% in each experiment were 0.9±0.3, 0.8±0.3, and 0.8±0.3. […]
Additionally, A549 cells (80,000 cells per well), were grown for 24 hours before addition of inhibitors (FIG. 2A). After 24 hours, trypan blue-stained cells were counted using a hemocytometer. […]

[3] = PASM cells, 10% FBS for 30 minutes

- IC50 (P70 S6 kinase; Homo sapiens, pulmonary artery smooth muscle cells, densitometry, read-out: IC50 for inhibition of S6K phosphorylation): ~1 µM
- IC50 (AKT; Homo sapiens, pulmonary artery smooth muscle cells, densitometry, read-out: IC50 for inhibition of Akt phosphorylation): 10 to 100 µM
Compound: O=c1cc(N2CCNCC2)oc2c(-c3ccccc3)cccc12 [LY303511, 2-(4-piperazinyl)-8-phenyl-4H-1-benzopyran-4-one]
- basal and serum-stimulated phosphorylation of P70 S6 kinase (P70 S6 kinase; [3]): inhibited basal and serum-stimulate phosphorylation of P70 S6 kinase
- serum-stimulated phosphorylation of mTOR at S2481 (mTOR): inhibited serum-stimulated phosphorylation of mTOR at S2481
- progression or development of autoimmune disease (NOD mouse model): delays the progression of the disease, or provides protection from developing the disease
- phosphorylation of AKT (AKT; [3]): inhibits phosphorylation of AKT, albeit to a lesser extent than phosphorylation of p70 S6 kinase
- BrDu uptake (DNA synthesis, proliferation) (A549 cells [1]): concentration-dependent reduction
- cell proliferation (cell number) (A549 cells [2]): significant inhibitory effect
